Assay results reported in the METLIN SMRT retention time set (Domingo-Almenara et al. 2019).

Assay: gradient 5% acetonitrile 3 min, to 50% in 2 min, to 85% in 15 min, held 3 min, 100 µL/min
Conditions: column: Zorbax Extend-C18 2.1 x 50 mm; eluents: water / acetonitrile, 0.1% formic acid
Procedure, shortened: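 Pure standards were run in mixtures of ~100 molecules by HPLC coupled to a quadrupole time-of-flight mass spectrometer. The column was a Zorbax Extend-C18 (2.1 × 50 mm, 1.8 μm) at 100 μL/min, with water and acetonitrile each containing 0.1% formic acid, in positive and negative ionization mode. Dead and dwell volumes were 40 μL and 900 μL. Retention time was taken from computationally picked adduct peaks, each manually inspected, with data collected over 3 months.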

SMILES | RP-LC retention time [s]
COc1ccc(N2CCN(CC(O)COc3c(C)cccc3C)CC2)cc1 (configuration not stated) | 698
COc1ccc(N2CC(c3noc(-c4ccc(OC)cc4C)n3)CC2=O)cc1 (configuration not stated) | 992
COc1ccc(-n2ccn3cc(-c4cccc(Cl)c4)nc3c2=O)cc1 | 873
CCc1ccc(S(=O)(=O)N2CCc3nc(-c4ccc(F)cc4)ncc3C2)cc1 | 1190
CCCC(=O)Nc1ccc(-n2cnc(C(=O)NCC)c2)nc1 | 634
COCCOC1CCN(S(=O)(=O)c2ccccc2C)CC1 | 810
COc1ccccc1N1CCN(S(=O)(=O)c2ccc(F)cc2C)CC1 | 1010
O=C(CCC1CCN(S(=O)(=O)c2ccccc2F)CC1)NC1CC1 | 752
O=C(Nc1cccc(Cl)c1)Nc1c(-c2ccc(F)cc2)nc2ccccn12 | 730
Cn1cc(C2=CCN(C(=O)c3cccc(Cl)c3)CC2)c2cccnc21 | 901
O=C([C@@H]1C[C@H](F)CN1S(=O)(=O)c1cccc(F)c1)N1CCCCC1 | 805
COc1cc([C@@H]2c3cc4c(cc3[C@H](O)[C@@H](CO)[C@@H]2C(=O)Nc2ccc(C)cc2)OCO4)cc(OC)c1OC | 763
CCC1(O)CCC12CCN(C(=O)c1ccoc1)CC2 (configuration not stated) | 691
CCc1c(C)nc2ncnn2c1N1CCOCC1 | 653
Cc1nn2c(CNC(=O)c3ccccc3Br)c(C)nc2s1 | 610
O=C(NCc1cccs1)C1CCN(Cc2cc3ccccc3n2Cc2ccc(F)cc2)CC1 | 783
COc1ccc(CNc2ncc(C(=O)O)c(C(C)C)n2)cc1OC | 863
O=C(Cn1nc(N2CCSCC2)c2ccccc2c1=O)Nc1ccccc1 | 890
Cc1cc(C)cc(Nc2c(C(=O)N3CCC(C)CC3)cnc3nc(C)ccc23)c1 | 693

SMILES | RP-LC retention time [s]
CCOc1ccc(NC(=O)c2noc3c2CCCC3)cc1 | 958
COC(=O)N1CCN(CCNC(=O)Cc2ccc(SC(C)C)cc2)CC1 | 584
O=C(c1ccccn1)N1CCC(n2nc(-c3ccsc3)ccc2=O)CC1 | 641
Cc1sc(C)c(S(=O)(=O)Nc2ccc(Cl)cc2)c1-c1cc(C(F)(F)F)on1 | 1210
O=C(Cn1nc(C(=O)N2CCCC2)c2ccccc21)N1CCN(c2cccc(C(F)(F)F)c2)CC1 | 983
Cc1sc(S(=O)(=O)N2CCSCC2)cc1NC(=O)c1ccc(C(C)(C)C)cc1 | 1150
COc1cc(O)ccc1-c1nc2ccc(Br)cn2c1Nc1ccccc1C | 736
COc1ccccc1NC(=O)Cn1nc2c(Oc3cc(C)cc(C)c3)nccn2c1=O | 957
O=C1CCCN1CCCN1C(=O)[C@H]2CN(Cc3cccc(F)c3F)C[C@H]2C1=O | 625
Cc1ccccc1Cn1c(N2CCC(C(=O)N3CCN(c4ccccn4)CC3)CC2)nc2ccccc21 | 587
Cc1ccc(-c2nc(Cn3c(C)nc4onc(C)c4c3=O)c(C)o2)cc1 | 1170
CCc1ccccc1NC(=O)Cn1c(C)nc2c(sc3nc(-c4ccccc4)ccc32)c1=O | 1080
O=C(Cc1nnc(-c2ccc3ncccc3c2)o1)Nc1ccc(C(F)(F)F)cc1 | 827
CCc1nc(-c2cccc(-c3noc(CNS(=O)(=O)c4ccc(F)cc4)n3)c2)cs1 | 1060
CCc1ccc(NC(=O)C2(C)Oc3cccnc3N(C(C)C)C2=O)cc1 (configuration not stated) | 1120
Cc1ccc(NC(=O)Cn2nc3c(Oc4cccc(F)c4)nccn3c2=O)c(F)c1 | 878
COC(=O)c1cc(S(=O)(=O)N2CCCC2C(=O)Nc2nc3ccc(OC)cc3s2)cn1C (configuration not stated) | 893
CCc1ccc(Nc2nc(C(=O)NC3CCCC3)nc3ccccc23)cc1 | 934
CCn1cc(S(=O)(=O)NCCn2c(C)cnc2-c2ccccc2)cn1 | 560

SMILES | RP-LC retention time [s]
O=c1[nH]c2ccc(O)cc2o1 | 563
Cc1cc(O)c(C(C[N+](=O)[O-])c2ccc(Cl)cc2Cl)c(=O)o1 (configuration not stated) | 803
COCCn1cc(CCNC(=O)Nc2cccc(Br)c2)c2cccnc21 | 783
COc1ccc(CCN2CC(=O)N(c3cc(C)cc(C)c3)[C@@H]3CS(=O)(=O)C[C@@H]32)cc1 | 865
Cc1cccc(NC(=O)C2CCN(S(C)(=O)=O)c3ccccc3O2)c1 (configuration not stated) | 895
O=C(NCC1CCN(C(=O)c2ccccc2F)CC1)C(=O)Nc1ccon1 | 636
CCn1nc(C(=O)Nc2cccc3c2C(=O)N(C)C3=O)cc1C | 856
COc1ccc2[nH]cc(CCNCc3ccc(Br)cc3)c2c1 | 764
CCn1c(=O)c(N2CCN(C(=O)Nc3cc(C)cc(C)c3)CC2)nc2ccccc21 | 927
CN1C(=O)C2CCCCN2c2ccc(C(=O)N3CCC4(CC3)OCCO4)cc21 (configuration not stated) | 750
Cc1occc1C(=O)Nc1nc(-c2ccc(CC(C)C)cc2)cs1 | 1350
COc1cccc(C(=O)NCCc2c[nH]c3ccc(F)cc23)c1 | 820
COc1cccc(CNC2=NCCNC23CCN(S(=O)(=O)c2cc(C)c(C)cc2C)CC3)c1 | 836
CC1CCCN(C(=O)C2CC(=O)N(c3ccccc3)C2)C1 (configuration not stated) | 786
Cc1cc(F)ccc1S(=O)(=O)NCC(c1ccsc1)N1CCOCC1 (configuration not stated) | 572
COc1ccc(CCc2nc3nccc(-c4cccs4)n3n2)cc1 | 932
O=C(c1ccc(F)c(Cl)c1)N1CCN(c2cc(-c3ccc(F)cc3)[nH]n2)CC1 | 894
Nc1c(C(=O)NCc2ccccc2Cl)nsc1C(=O)N1CCN(c2ccccn2)CC1 | 715

Next, values leading:

RP-LC retention time [s] | SMILES
619 | COc1ccc(N2C(=O)CCC(C(=O)N3CCOCC3)C2c2ccc(OC)c(OC)c2)cc1 (configuration not stated)
879 | Cc1cc(Cl)ccc1NC(=O)C1CCCN(c2ncnc3c2nc2n3CCCCC2)C1 (configuration not stated)
891 | COc1ccc(C)cc1S(=O)(=O)N1CCCC(c2nnc(COc3ccccc3)o2)C1 (configuration not stated)
1060 | Cc1ccc(Cl)cc1N1CCN(C(=O)C2CCN(c3ncnc4c3oc3ccccc34)CC2)CC1
700 | NC(=O)C1CCN(C(=O)c2ccc(CN3C(=O)CCn4nc(-c5cccc(Cl)c5)cc43)cc2)CC1
731 | O=C(NCc1ccc(Cl)cc1)C1CCCN(c2cnc3nccnc3c2)C1 (configuration not stated)
937 | CCc1nc(-c2csc(S(=O)(=O)N3CCCC(C(=O)NC4CCCC4)C3)c2)no1 (configuration not stated)
644 | COCCCNC(=O)C1CCC(=O)N(c2ccc3c(c2)OCO3)C1c1ccc(OC)cc1 (configuration not stated)
592 | COc1ccc(NC(=O)C2CCN(c3cncnc3N(C)C)CC2)cc1OC
861 | Cc1nnc(N2CCCC(C(=O)NCCC3=CCCCC3)C2)c2nn(-c3ccc(Cl)cc3)c(C)c12 (configuration not stated)
692 | CCCCOc1ccc(-c2cc3c4nnc(CCC(=O)N5CCN(C(C)C)CC5)n4ccn3n2)cc1
646 | Cc1nc(Nc2ccc(NC(=O)COc3ccc(Cl)cc3)cc2)cc(-n2ccnc2)n1
750 | O=C(NCc1csc(C2CCCN(C(=O)c3cc(F)ccc3Cl)C2)n1)C1CC1 (configuration not stated)
692 | CCCc1ccc(S(=O)(=O)N2CCC3(CC2)CN(C)CC3c2nnc(CC)o2)cc1 (configuration not stated)
858 | CCOC(=O)C1CCCN(S(=O)(=O)c2cc(C(=O)N3CCCCC3)n(C)c2C)C1 (configuration not stated)
634 | COc1cc(NC(=O)C2CCCN(c3nnc4ccccn34)C2)cc(OC)c1OC (configuration not stated)

RP-LC retention time [s] | SMILES
785 | COC(=O)c1c(C)[nH]c(C(=O)N2CCC(CC(=O)NCCc3c[nH]c4ccc(Cl)cc34)CC2)c1C
632 | Cc1cccc(N2CCN(Cc3nc4nc(C)cc(N5CCCC5)n4n3)CC2)c1
844 | CCCn1c(=O)sc2cc(S(=O)(=O)N3CCC(C(=O)Nc4cccc(C)n4)CC3)ccc21
838 | CNC(=O)N1CCCC(c2cccc(C(=O)NCc3ccccc3C(F)(F)F)c2)C1 (configuration not stated)
610 | O=C(NC1CCN(c2cc(N3CCOCC3)cnn2)C1)c1ccc(Cl)s1 (configuration not stated)
953 | CCc1ccc(NC(=O)C2CCN(S(=O)(=O)c3ccc4c(c3)sc(=O)n4CC)CC2)cc1
706 | CCn1cnnc1C1CCCCN1S(=O)(=O)c1ccccc1F (configuration not stated)
639 | Cc1ccc(C(CC(=O)NCCCN2CCCC2)N2Cc3ccccc3C2=O)cc1 (configuration not stated)
622 | C=CCN1CCN(c2ccc3nnc(CCc4nc(-c5ccc(F)cc5)no4)n3n2)CC1
841 | CCCNC(=O)C1CCCN(S(=O)(=O)c2cc(-c3noc(CC)n3)cs2)C1 (configuration not stated)
785 | CCOc1ccc(CNC(=O)C2CCCN(c3nnc(C)c4c(C)n(-c5ccc(C)cc5)nc34)C2)cc1 (configuration not stated)
658 | Cc1ccc(NC(=O)N2CCC(N3CCN(Cc4ccccn4)C(=O)C3=O)CC2)cc1Cl
735 | CC(C)NC(=O)CN1C(=O)C2CCCCN2c2ccc(C(=O)N3CCCCC3)cc21 (configuration not stated)
739 | COc1ccc(-c2cc(N3CCC(NC(=O)c4ccc(Cl)cc4)C3)n[nH]2)cc1 (configuration not stated)
1020 | O=C(Nc1cnc(-c2cccc(Cl)c2)nc1)C1CCC1
